For this test, the system named is P388. Briefly: Cytotoxicity against mouse P388 cells. Format: functional, cell-based.

Turning to `O=C1C=C[C@@]23C[C@@H](NC4=C2C2=NCCc5c[nH]c(c52)C4=O)SC3=C1`, the midpoint of inhibition, the IC50, lay at 510 nM. Under `O=C1C=C2S[C@H]3C[C@]2(C=C1Br)C1=C(N3)C(=O)c2[nH]cc3c2C1=NCC3` [DISCORHABDIN B] stands 87 nM; under `O=C1C2=C3C4=[N+](CCc5c[nH]c1c54)[C@H]1C[C@@]34C[C@@H](N2)SC4=CC1=O` [DISCORHABDIN D], 1600 nM; under `O=C1C2=C3C4=[N+](CCc5c[nH]c1c54)[C@@H]1C(=O)C=C4S[C@@H](C[C@@]43[C@H]1O)N2` [DISCORHABDIN L], 1100 nM. As to `O=C1C=C(SSC2=CC(=O)C(Br)=C[C@]23C=CNC2=C3C3=NCCc4c[nH]c(c43)C2=O)[C@@]2(C=CNC3=C2C2=NCCc4c[nH]c(c42)C3=O)C=C1Br` [DISCORHABDIN W], 84 nM corresponded to half-maximal inhibition (IC50).

The values are drawn from ChEMBL document CHEMBL1151287, “Discorhabdin W, the first dimeric discorhabdin” (J Nat Prod, 2005).
